According to PMC11183791, “Vancomycin population pharmacokinetics and dosing proposal for the initial treatment in obese adult patients” (Frontiers in Pharmacology, 2024):
Values after ≈ are worked out from the molar mass of the structure shown.

Columns and labels:
[1] = tested on: isolated bacterial strain (Staphylococcus spp., Enterococcus spp., Klebsiella pneumoniae, Streptococcus agalactiae); details: isolated bacterial strains of the study patients
[2] = cited from earlier work
[3] = Vancomycin trough serum levels after loading dose with and without the guidance of clinical pharmacists (TDM, KIMS immunoturbidimetry); assay type: in vivo, human
Procedure: The lower limits of detection and quantitation were 1.5 and 4.0 mg/L, respectively, and the measuring range was from 4.0 to 80.0 mg/L. Only levels measured during initial vancomycin therapy (first 3 days of treatment) were included in the PK analysis. If available, the MIC value of vancomycin for the isolated bacterial strain was also recorded.
Vancomycin t1/2 was calculated from Vd and clearance (CL) values using the following formula: t1/2 = 0.693 × Vd/CL. Descriptive parameter medians and interquartile range (IQR) were calculated using MS Excel 2013 (Microsoft Corporation, Redmond, United States). The Mann–Whitney U-test was used to compare vancomycin loading doses (LDs)with and without the guidance of clinical pharmacists and compare trough levels reached after loading dose administration. The linear regression model was used to evaluate the relationships between vancomycin PK parameters (Vd and CL) and continuous variables (BW, LBM, BSA, BMI, creatinine, and cystatin C-based eGFR). GraphPad Prism software version 8.2.1 (GraphPad Inc., La Jolla, CA, USA) was used for all comparisons, and p-levels <0.05 were considered statistically significant.

[4] = bootstrap analysis, 250 replicates
[5] = obese adults (BMI ≥30 kg/m^2), n = 138, iv infusion, first 3 days of treatment, one-compartment model

For `CN[C@H](CC(C)C)C(=O)N[C@H]1C(=O)N[C@@H](CC(N)=O)C(=O)N[C@H]2C(=O)N[C@H]3C(=O)N[C@H](C(=O)N[C@H](C(=O)O)c4cc(O)cc(O)c4-c4cc3ccc4O)[C@H](O)c3ccc(c(Cl)c3)Oc3cc2cc(c3O[C@@H]2O[C@H](CO)[C@@H](O)[C@H](O)[C@H]2O[C@H]2C[C@](C)(N)[C@H](O)[C@H](C)O2)Oc2ccc(cc2Cl)[C@H]1O` [vancomycin, Vancomycin], the “MIC, median (min–max)” value [1] was 1 (≤0.5–2) mg/L, the “MIC, modus” value [1] was 1 µg/mL (≈ 0.69 µM) and the “CL_pop, bootstrap median (95% CI)” value [4] was 1.27 (1.24–1.31) L/h. The “Vd_pop, bootstrap median (95% CI)” value [4] was 79.3 (77.8–80.9) L, the “β_CL_LBM, bootstrap median (95% CI)” value [4] was 0.011 (0.0108–0.0113) kg and the “β_CL_eGFR, bootstrap median (95% CI)” value [4] was 0.61 (0.60–0.63) mL/s/1.73 m^2. The “CL, median (interquartile range) of individual estimates (conditional modes)” value [5] was 6.65 (4.95–8.42) L/h, the “Vd, median (interquartile range) of individual estimates (conditional modes)” value [5] was 74.0 (70.5–75.4) L and the “elimination half-life t1/2, median (interquartile range) of individual estimates” value (obese adults, n = 138, t1/2 = 0.693 × Vd/CL) was 7.7 (6.0–10.0) h. The “t1/2 corresponding to estimated CL and Vd of 75 L” value (patient with LBM of 68 kg and eGFR of 1.51 mL/s/1.73 m^2) was 7.4 h, the “CL estimated from the final covariate equation” value (patient with LBM of 68 kg and eGFR of 1.51 mL/s/1.73 m^2 (median values of the study population)) was 7 L/h and the “Vd_pop, final model estimate” value (typical value of parameter, final covariate population PK model, obese adults) was 75.0 L. The “CL_pop, final model estimate” value (typical value, CL=CL_pop×e^(β_CL_eGFR×eGFR)×e^(β_CL_LBM×LBM)) was 1.32 L/h, the “elimination half-life (t1/2)” value ([2]; can be prolonged in renal insufficiency, ref Rybak, 2006) was 6 to 12 h and the distribution half-life ([2]; ref Matzke et al., 1986) was “approximately 7 min”. For the same compound, the distribution phase duration ([2]; ref Matzke et al., 1986) was “approximately 0.5 h”, the “absorption after oral administration” value ([2]; ref Rybak et al., 2009) was “not absorbed efficiently” and the “portion of dose excreted unchanged via glomerular filtration” value ([2]; ref Rybak, 2006) was “majority”. For the same compound, the “contribution of the distribution phase to total vancomycin exposure” value ([2]; ref Shingde et al., 2019) was < 10%, the “median trough level after LD relative to the recommended therapeutic range (15–20 mg/L)” value ([3]; LD with the guidance of clinical pharmacists) was “in” and the “median trough level after LD relative to the recommended therapeutic range (15–20 mg/L)” value ([3]; LD without the guidance of clinical pharmacists) was “out of the recommended therapeutic range”.
